From patent publication US4891450A, “Process for intermediates for insecticidal compounds” (Imperial Chemical Industries PLC, priority 1987, dated 1990)

What was measured:
Type in all cases: in vivo
[1] = system: Diabrotica balteata (rootworm larvae); assay: Residual test, mortality of Diabrotica balteata larvae, Filter paper/maize seed (DB); conditions: 72 h, 3 days, read-out: grading of mortality, DB
Experimental: (§1) The activity of the Product was determined using a variety of insect pests The Product was used in the form of liquid preparations containing from 100 to 500 parts per million (ppm) by weight of the Product. The preparations were made by dissolving the Product in acetone and diluting the solutions with water containing 0.1% by weight of a wetting agent sold under the trade name "SYNPERONIC" NX until the liquid preparations contained the required concentration of the Product "SYNPERONIC" is a Registered Trade Mark.
(§2) The test procedure adopted with regard to each pest was basically the same and comprised supporting a number of the pests on a medium which was usually a host plant or a foodstuff on which the pests feed, and treating either or both the pests and the medium with the preparations. The mortality of the pests was then assessed at periods usually varying from one to seven days after the treatment.
(§3) The results of the tests are given in Table III for each of the Products, at the rate in parts per million given in the second column as a grading of mortality designated as A, B or C wherein A indicates 80-100% mortality or knockdown, B indicates 50-79% mortality knockdown or knockdown and C indicates less than 50% mortality or knockdown.
(§4) In Table III the pest organism used is designated by a letter code and the pests species, the support medium or food, and the type and duration of test is given in Table II.

[2] = system: Musca domestica (houseflies - adults); assay: Contact test, mortality of Musca domestica adults (MD); conditions: 24 h, 1 day, read-out: grading of mortality, MD
Experimental: as §1, §2, §3, §4

[3] = system: Nilaparvata lugens (brown plant hopper - nymphs); assay: Contact test, mortality of Nilaparvata lugens nymphs on Rice plant (NL); conditions: 72 h, 3 days, read-out: grading of mortality, NL
Experimental: as §1, §2, §3, §4

[4] = system: Heliothis virescens (tobacco budworm - larvae); assay: whole plant or invertebrate; conditions: in Gossypium hirsutum, 72 h, read-out: grading of mortality, HV
Experimental: as §1, §2, §3, §4
(tobacco budworm - larvae)

[5] = system: Tetranychus urticae (spider mites - adult); assay: Contact test, mortality of Tetranychus urticae adults on French bean leaf (TUa); conditions: 72 h, 3 days, read-out: grading of mortality, TuA
Experimental: as §1, §2, §3, §4

[6] = system: Blattela germanica (cockroach nymphs); assay: Residual test, mortality of Blattela germanica nymphs (BG); conditions: 3 days
Experimental: as §1, §2, §3, §4

[7] = system: Myzus persicae (aphids); assay: Contact test, mortality of Myzus persicae on Chinese Cabbage leaf (MP); conditions: 72 h, 3 days, read-out: grading of mortality, MP
Experimental: as §1, §2, §3, §4

[8] = system: Spodoptera exigua (lesser army worm - larvae); assay: Residual test, mortality of Spodoptera exigua larvae on Cotton leaf (SP); conditions: 72 h, 3 days, read-out: grading of mortality, SP
Experimental: as §1, §2, §3, §4
(lesser army worm - larvae)

[9] = system: Tetranychus urticae (spider mites - ova); assay: Contact test, mortality of Tetranychus urticae ova on French bean leaf (TUe); conditions: 144 h, 6 days, read-out: grading of mortality, TuE
Experimental: as §1, §2, §3, §4

Row | Compound | mortality at 250 ppm ([1]; 250 ppm) [%] | mortality at 250 ppm ([2]; 250 ppm) [%] | mortality at 250 ppm ([3]; 250 ppm) [%] | mortality at 250 ppm [4] [%] | mortality at 250 ppm ([5]; 250 ppm) [%] | grading of mortality, BG ([6]; 250 ppm) | mortality at 250 ppm ([7]; 250 ppm) [%] | mortality at 500 ppm [1] [%] | mortality at 500 ppm [2] [%] | mortality at 500 ppm [3] [%] | mortality at 500 ppm [4] [%] | mortality at 500 ppm [5] [%] | grading of mortality, BG ([6]; 500 ppm) | mortality at 500 ppm [7] [%] | mortality at 500 ppm [8] [%] | mortality at 500 ppm [9] [%]
1 | CCOc1ccc(C(COCc2cccc(Oc3ccc(Cl)cc3)c2)C(F)(F)F)cc1 (racemic) [Compound 3, (RS)-1,1,1-trifluoro-2-(4-ethoxyphenyl)-3-[3-(4-chlorophenoxy)benzyloxy]propane] | 80 to 100 | 80 to 100 | 80 to 100 | < 50 | < 50 | A (80-100% mortality or knockdown) | 80 to 100 |  |  |  |  |  |  |  |  | 
2 | CCOc1ccc(C(COCc2ccc(F)c(Oc3ccc(Cl)cc3)c2)C(F)(F)F)cc1 (racemic) [Compound 5, (RS)-1,1,1-trifluoro-2-(4-ethoxyphenyl)-3-[3-(4-chlorophenoxy)-4-fluorobenzyloxy]propane] |  |  |  |  |  |  |  | 80 to 100 | 80 to 100 | 80 to 100 | 80 to 100 | 50 to 79 | A (80-100% mortality or knockdown) | 80 to 100 |  | 
3 | Fc1ccc(COCC(c2ccc(OC(F)(F)F)cc2)C(F)(F)F)cc1Oc1ccc(Cl)cc1 (racemic) [Compound 29, (RS)-1,1,1-Trifluoro-2-(4-trifluoromethoxyphenyl)-3-[3-(4-chlorophenoxy)-4-fluorobenzyloxy]propane] |  |  |  |  |  |  |  | 80 to 100 | 80 to 100 | 80 to 100 | 80 to 100 | 80 to 100 | A (80-100% mortality or knockdown) | 80 to 100 | 80 to 100 | 80 to 100
4 | Fc1ccc(COCC(c2ccc(C(F)(F)F)cc2)C(F)(F)F)cc1Oc1ccccc1 (racemic) [Compound 38, (RS)-1,1,1-Trifluoro-2-(4-trifluoromethylphenyl)-3-(3-phenoxy-4-fluorobenzyloxy) propane] |  |  |  |  |  |  |  | 80 to 100 | 80 to 100 | 80 to 100 | 80 to 100 | 80 to 100 | A (80-100% mortality or knockdown) | 80 to 100 | 80 to 100 | 80 to 100
5 | FC(F)(F)c1ccc(C(COCc2cccc(Oc3ccccc3)c2)C(F)(F)F)cc1 (racemic) [Compound 39, (RS)-1,1,1-Trifluoro-2-(4-trifluoromethylphenyl)-3-(3-phenoxybenzyloxy)propane] |  |  |  |  |  |  |  | 80 to 100 | 80 to 100 | 80 to 100 | 80 to 100 | < 50 | A (80-100% mortality or knockdown) | 80 to 100 | 80 to 100 | 80 to 100
